Broadly, the IC50 is the concentration needed to halve the response being measured.

This is an account of results in paper PMC6058718, “Doxorubicin conjugated with a trastuzumab epitope and an MMP-2 sensitive peptide linker for the treatment of HER2-positive breast cancer” (Drug Delivery, 2018).

The subject of one data set is BT474 xenografts. The following applies: nude mice with BT474 xenografts, 5 mg DOX equivalent/kg once every seven days for three times. The method, then:
Eighteen athymic nude mice (Balb/c nu/nu, females) were used. All animal experiments were carried out in accordance with guidelines evaluated and approved by the ethics committee of Nanjing Medical University. BT474 cells were first collected in a concentration of 1 × 10^7/mL and orthotopically injected into the mammary fat pad area of each mouse with 0.1 mL PBS/mouse.
(§1) When the tumor size reached a volume of about 50 mm^3, the mice were randomly divided into three groups (each group consisted of 6 mice) for the treatment with 5 mg DOX equivalent/kg of either free DOX or MAHNP-DOX once every seven days for three times. Saline was used as negative control. The animals’ weight and tumor dimensions were measured every five days. Tumor volume was calculated using an equation: TV =1/2 × a × b^2, where a is the largest diameter and b is the smallest diameter. Each animal was tagged in the ear and followed individually throughout the experiment. For in vivo imaging study, the mice were intravenously injected through the caudal vein by 5 mg DOX equivalent/kg of free DOX and MAHNP-DOX, images were taken on IVIS LuminaXR imaging system (Perkin Elmer, San Diego, CA, USA) at 4 h post injection. Tumors and organ samples including heart, liver, spleen, kidneys and lungs were carefully removed and stored in liquid nitrogen. To assess the pharmacokinetic profile of the drugs, free DOX and MAHNP-DOX were injected intravenously into the mice, respectively. Blood samples were collected at 0.083, 0.25, 0.5, 1, 2, 4, 8, 12 and 24 h post injection.

Data set [1] in a line: Biodistribution in BT474 tumor-bearing mice by fluorescent imaging and HPLC. Type of data set: in vivo. The following applies: 4 h after intravenous injection, 5 mg DOX equivalent/kg. The source says: Saline was used as negative control.
Daunorubicin (DAU) was used as internal standard.

The subject of data set [2] is SKBR3 cells. Kind of data set: MTT cytotoxicity assay, SKBR3 cells. The data set is classed as cell-based, human. The method, then: (§2) The cytotoxicity of MAHNP-DOX was determined using MTT test. Free DOX was used as positive control, and the cells treated with conditioned medium only were considered as negative control. BT474 and SKBR3 cells in exponential growth were seeded in a 96-well plate and incubated for 24 h at 37 °C. Then, a series of dilutions of free DOX and MAHNP-DOX at equivalent concentration were prepared with the conditioned medium and incubated for another 48 h. After an addition of MTT solution (5 mg/ml in PBS) to each well, the cells were incubated for 4 h and lysed in DMSO. Absorbance was determined at 490 nm using an EL ×800 absorbance microplate reader (Biotek, Winooski, VT, USA). The IC50 values were calculated from the linear regression of the dose–log response curves using GraphPad Prism 6 software (GraphPad Software, San Diego, CA, USA).
(§3) To further confirm the dependence of cytotoxicity on MMP-2 activity, NIH-3T3 cells were pre-incubated with 10 μM MMP-2 inhibitor I in serum-free medium for 24 h, and the medium was also collected termed as treated conditioned medium. Following the procedure above, the cytotoxicity of MAHNP-DOX was also determined using this medium.
On the technique in general: Tetrazolium dyes change colour on reduction, which living cells bring about.

A short description of data set [3]: Pharmacokinetic profile in plasma of mice. The following applies: intravenous injection, blood 0.083-24 h post injection, LC-MS/MS, n = 3. The procedure:
as §1

Data set [4] relates to BT474 cells. Description: MTT cytotoxicity assay, BT474 cells. Type of data set: cell-based, human. The method, then:
as §2, §3

In another data set the target is T1, MMP-2 (Mus musculus, UniProt P33434).
T1 construct: 4 mL of the medium containing active MMP-2 (i.e. conditioned medium) was collected and concentrated; endogenous in cells; host or cells: NIH-3T3 fibroblasts; serum-free conditioned medium concentrated with a 10 K centrifugal filter
Description: Enzymatic cleavage of MAHNP-DOX by MMP-2 in NIH-3T3 conditioned medium. Type of data set: in vitro ADME. The following applies: 5 μM MAHNP-DOX in concentrated conditioned medium from NIH-3T3 cells containing active MMP-2, 37 °C, 2 h of incubation, HPLC / LC-MS/MS. The procedure:
NIH-3T3 cells that can secrete active MMP-2 (Figure S1) were cultured in serum-free medium for 24 h. Then, 4 mL of the medium containing active MMP-2 (i.e. conditioned medium) was collected and concentrated to 500 μL using Amicon Ultra-4 10 K centrifugal filter devices (Millipore, Bedford, MA, USA) (Aye et al., [2004]). Dilution of MAHNP-DOX at a concentration of 5 μM was prepared with the concentrated conditioned medium and incubated at 37 °C. Aliquots were removed at 1 h and 2 h and then analyzed by LC–MS/MS (van Duijnhoven et al., [2011]). The analysis was performed on XBridge™ C18 column (5 μm, 4.6 × 250 mm; Waters, Milford, MA, USA) at room temperature. The flow rate of HPLC was 0.3 mL/min with a mobile phase consisted of solvent A (water with 0.1% FA) and solvent B (ACN). The gradient was as follows: B 0 min (10%) → 15 min (90%) → 20 min (90%) → 25 min (10%).
The sensitivity of MAHNP-DOX to MMP-2 was studied using HPLC. To date, there has been substantial evidence indicating stronger signals for MMP-2 in stromal cells compared to cancer cells, while stromal fibroblasts interact with cancer cells by secreting and activating MMP-2 (Saad et al., [2002]; Hassona et al., [2014]). […] Thus, the peaks for MAHNP-DOX and one product after cleavage of GLPG-DOX were monitored. […]

Data set [5] relates to BT474 cells. Description: TUNEL assay, BT474 cells. The following applies: 24 h treatment, n = 3. The data set is classed as cell-based, human. The method, then: (§4) Transferase-mediated nick-end labeling assay was carried out using the DeadEnd Fluorometric TUNEL system kit (Promega, Madison, WI, USA). […] Images were acquired at room temperature with an inverted fluorescence microscope (Leica, DMI3000B, Wetzlar, Germany).

In data set [6] the test system is SKBR3 cells. Kind of data set: TUNEL assay, SKBR3 cells. Type of data set: cell-based, human. The following applies: 24 h treatment, n = 3. The method, then: as §4
The target of data set [7] is human epidermal growth factor receptor family member HER2 (human (endogenous in BT474 and SKBR3)) (UniProt P04626).
Setting [8] is: 48 h, in conditioned medium, n = 3, read-out: IC50.
Setting [9] is: conditioned medium from NIH-3T3 cells pretreated with 10 μM MMP-2 inhibitor I, n = 3, read-out: IC50 with MMP-2 inhibitor pretreatment.

Read-outs that look alike come from different tables or passages of the source. Where a SMILES comes first, the peptide text is derived from it. Bridges are numbered along the chain shown (N, C = ends). Where no end group is shown, it is not given here. The star is where a group is joined. Glutaryl(5-(14-O-Dox)) = COc1cccc2c1C(=O)c1c(O)c3c(c(O)c1C2=O)C[C@@](O)(C(=O)COC(=O)CCCC(=O)*)C[C@@H]3O[C@H]1C[C@H](N)[C@H](O)[C@H](C)O1

T1 sequence (P33434 110-662): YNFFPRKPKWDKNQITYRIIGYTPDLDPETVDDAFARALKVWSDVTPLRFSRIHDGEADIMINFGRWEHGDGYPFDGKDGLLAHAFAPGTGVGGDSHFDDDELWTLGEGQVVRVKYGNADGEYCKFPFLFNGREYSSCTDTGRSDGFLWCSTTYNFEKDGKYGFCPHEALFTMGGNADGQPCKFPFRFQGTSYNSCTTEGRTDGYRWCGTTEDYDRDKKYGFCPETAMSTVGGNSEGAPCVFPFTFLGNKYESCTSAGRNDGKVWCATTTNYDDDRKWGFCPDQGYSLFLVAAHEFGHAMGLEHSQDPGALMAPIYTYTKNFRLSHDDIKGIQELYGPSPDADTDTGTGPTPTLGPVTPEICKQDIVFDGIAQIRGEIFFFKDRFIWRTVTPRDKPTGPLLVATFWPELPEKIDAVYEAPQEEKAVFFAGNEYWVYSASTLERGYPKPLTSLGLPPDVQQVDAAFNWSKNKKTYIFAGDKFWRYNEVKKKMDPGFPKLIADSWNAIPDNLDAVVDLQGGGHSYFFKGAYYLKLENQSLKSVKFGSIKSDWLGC

Consider `COc1cccc2c1C(=O)c1c(O)c3c(c(O)c1C2=O)C[C@@](O)(C(=O)COC(=O)CCCC(=O)NCC(=O)N1CCC[C@H]1C(=O)N[C@@H](CC(C)C)C(=O)NCC(=O)N[C@@H](CC(C)C)C(=O)N[C@@H](C)C(=O)NCC(=O)N[C@@H](CC(=O)O)C(=O)N[C@@H](CC(=O)O)C(=O)N[C@@H](Cc1ccc(O)cc1)C(=O)N[C@H]1CSSC[C@@H](C(=O)N[C@@H](Cc2ccc(O)cc2)C(=O)N[C@@H](CCSC)C(=O)N[C@@H](CC(=O)O)C(=O)N[C@H](C(N)=O)C(C)C)NC(=O)[C@H](C)NC(=O)[C@H](Cc2ccc(O)cc2)NC(=O)[C@H](Cc2ccccc2)NC(=O)CNC(=O)[C@H](CC(=O)O)NC1=O)C[C@@H]3O[C@H]1C[C@H](N)[C@H](O)[C@H](C)O1` [MAHNP-DOX] ({Glutaryl(5-(14-O-Dox))}-GPLGLAGDDYCDGFYACYMDV-NH2; disulfide 11-17), for which the “toxicity / body weight change” value in the data set on BT474 xenografts is recorded as “less weight loss”. Also, the “drug amount in the tumors compared with free DOX” value in data set [1] (fluorescent images confirmed by HPLC, p < .01) is “significantly higher”. The “drug accumulation in heart, liver, spleen, lung and kidney compared with free DOX” value in data set [1] (p < .05) is on record as “lower”. Besides, the IC50 came out at 110 ± 12.7 nM in the data set with SKBR3 cells [2] (setting [8]), 147 ± 16.3 nM in the data set with SKBR3 cells [2] (setting [9]), 747 ± 81.5 nM with BT474 cells [4] (setting [8]) and 1350 ± 154 nM in the data set with BT474 cells [4] (setting [9]). Further, the “half-life t1/2 in plasma” value in data set [3] turned out to be 17.6 ± 6.4 h. The molecule also displayed an efficiency of cleavage with MMP-2 of 80.8%.

On to `COc1cccc2c1C(=O)c1c(O)c3c(c(O)c1C2=O)C[C@@](O)(C(=O)CO)C[C@@H]3O[C@H]1C[C@H](N)[C@H](O)[C@H](C)O1.Cl` [free DOX, Doxorubicin hydrochloride], for which the tumor growth inhibition with BT474 xenografts (day 25 after treatment) was determined as 53.4 ± 6.6%. In addition, in the data set with BT474 xenografts, the “toxicity / body weight change” value was “Toxicity was observed”. Also, the “percentage of apoptotic cells” value in the data set with BT474 cells [5] is reported as 34.2 ± 2.1%; with SKBR3 cells [6] it was 44.8 ± 2.8%. Further, the IC50 was 173 ± 19.2 nM in the data set with SKBR3 cells [2] (setting [8]) and 2080 ± 368 nM in the data set with BT474 cells [4] (setting [8]). For the same molecule, the “half-life t1/2 in plasma” value in data set [3] is reported as 7.7 ± 1.6 h.

As for YCDGFYACYMDV-NH2 (disulfide 2-8) [anti-HER2 peptide mimetic AHNP], in data set [7], the increase of the cell population in the G1 phase, BT474 cells, 48 h exposure to AHNP (10 μM) alone, flow cytometry stood at 6.58% and the increase of the cell population in the G1 phase, SKBR3 cells, 48 h exposure to AHNP (10 μM) alone, flow cytometry came to 9.95%.
